Laboratory results: article PMC6222422, “Synthesis and Biological Evaluation of Novel Indole-Derived Thioureas” (Molecules : A Journal of Synthetic Chemistry and Natural …, 2018)
Values after ≈ are worked out from the molar mass of the structure shown.

Assays:
S. aureus ATCC 25923 [1] = experiment: MIC, twofold serial agar dilution; type: cell-based; conditions: Staphylococcus aureus, ATCC25923, 18 h, 35 °C, read-out: minimal inhibitory concentrations (MIC)
B. cereus ATCC 11778 = experiment: MIC, twofold serial agar dilution; type: cell-based; conditions: Bacillus cereus, ATCC11778, 18 h, 35 °C, read-out: minimal inhibitory concentrations (MIC)
M. luteus ATCC 9341 = experiment: MIC, twofold serial agar dilution; type: cell-based; conditions: Micrococcus luteus, ATCC9341, 18 h, 35 °C, read-out: minimal inhibitory concentrations (MIC)
S. aureus ATCC 25923 [2] = experiment: disc diffusion method; type: cell-based, Staphylococcus aureus; conditions: Staphylococcus aureus, ATCC25923, applied 400 µg per disc, dash = lack of the growth inhibition area, read-out: diameter of growth inhibitory zone (GIZ)
Reo-1 = experiment: microbe, parasite or virus in culture; type: cell-based, reovirus type-1; conditions: Reovirus sp., BHK, read-out: Reo-1 EC50
RSV = experiment: microbe, parasite or virus in culture; type: cell-based, human respiratory syncytial virus; conditions: human respiratory syncytial virus, Vero 76, read-out: RSV EC50
VSV = experiment: microbe, parasite or virus in culture; type: cell-based; conditions: Vesicular stomatitis virus, Vero 76, read-out: VSV EC50
in vitro = conditions: Syrian hamster (Mesocricetus auratus)
[3] = target: T1, S. aureus topoisomerase IV (Staphylococcus aureus, UniProt P0C1S7+P0C1U9); experiment: biochemical
T1 sequence (P0C1U9 whole entry): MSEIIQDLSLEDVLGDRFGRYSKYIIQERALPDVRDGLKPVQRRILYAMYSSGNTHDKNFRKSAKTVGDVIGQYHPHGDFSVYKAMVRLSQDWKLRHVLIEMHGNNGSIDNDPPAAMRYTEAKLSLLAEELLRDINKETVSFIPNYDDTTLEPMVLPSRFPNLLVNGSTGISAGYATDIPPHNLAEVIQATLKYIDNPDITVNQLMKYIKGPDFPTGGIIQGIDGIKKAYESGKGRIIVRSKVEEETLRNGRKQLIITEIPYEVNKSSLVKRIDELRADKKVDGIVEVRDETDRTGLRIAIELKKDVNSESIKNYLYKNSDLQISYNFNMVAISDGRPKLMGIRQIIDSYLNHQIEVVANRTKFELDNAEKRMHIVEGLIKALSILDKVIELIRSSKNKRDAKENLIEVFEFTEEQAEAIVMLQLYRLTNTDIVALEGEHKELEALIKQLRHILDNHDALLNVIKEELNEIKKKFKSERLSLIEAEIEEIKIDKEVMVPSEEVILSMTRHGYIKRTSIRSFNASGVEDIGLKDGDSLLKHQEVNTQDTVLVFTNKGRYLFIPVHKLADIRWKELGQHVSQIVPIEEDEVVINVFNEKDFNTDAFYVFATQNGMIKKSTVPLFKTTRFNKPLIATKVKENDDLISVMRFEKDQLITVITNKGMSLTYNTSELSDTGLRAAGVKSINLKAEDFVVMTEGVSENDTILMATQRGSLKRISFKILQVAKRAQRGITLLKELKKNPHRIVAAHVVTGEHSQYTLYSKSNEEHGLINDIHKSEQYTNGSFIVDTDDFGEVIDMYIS
T1 sequence (P0C1S7 whole entry): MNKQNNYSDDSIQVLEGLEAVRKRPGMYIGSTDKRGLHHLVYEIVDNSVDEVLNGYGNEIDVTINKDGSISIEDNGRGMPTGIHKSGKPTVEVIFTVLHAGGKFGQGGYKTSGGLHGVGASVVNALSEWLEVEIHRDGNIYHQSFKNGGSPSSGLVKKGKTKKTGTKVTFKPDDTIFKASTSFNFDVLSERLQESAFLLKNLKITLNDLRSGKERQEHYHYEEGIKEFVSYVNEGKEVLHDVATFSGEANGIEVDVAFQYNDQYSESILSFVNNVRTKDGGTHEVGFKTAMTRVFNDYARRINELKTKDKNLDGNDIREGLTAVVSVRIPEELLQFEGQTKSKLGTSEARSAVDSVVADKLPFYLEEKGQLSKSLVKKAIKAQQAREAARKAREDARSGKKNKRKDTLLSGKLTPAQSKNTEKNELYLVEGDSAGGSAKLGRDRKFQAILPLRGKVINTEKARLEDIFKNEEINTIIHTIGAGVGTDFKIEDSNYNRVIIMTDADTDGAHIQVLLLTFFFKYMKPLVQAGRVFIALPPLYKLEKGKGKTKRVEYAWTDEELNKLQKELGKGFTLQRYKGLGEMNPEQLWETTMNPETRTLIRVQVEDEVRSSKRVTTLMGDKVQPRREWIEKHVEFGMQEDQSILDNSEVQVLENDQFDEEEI

[4] = system: methicillin-resistant strains of S. aureus (MRSA); experiment: MIC against hospital strains; conditions: Staphylococcus aureus
[5] = target: T1, S. aureus topoisomerase IV; conditions: 64 to 0.5 µg/mL, Figure 2
[6] = hospital S. aureus MRSA strain 389/10
[7] = hospital S. aureus MRSA strain 390/10
[8] = hospital S. aureus MRSA strain 391/10
[9] = hospital S. aureus MRSA strain 392/10
[10] = hospital S. aureus MRSA strain 393/10
[11] = hospital S. aureus MRSA strain 394/10
[12] = hospital S. aureus MRSA strain 399/10
[13] = hospital S. aureus MRSA strain 450/11
[14] = hospital S. aureus MRSA strain 451/11
[15] = hospital S. aureus MRSA strain 452/11

Structure (SMILES)	MIC (S. aureus ATCC 25923 [1])	MIC (B. cereus ATCC 11778)	MIC (M. luteus ATCC 9341)	zone of inhibition at 400 µg/disc (S. aureus ATCC 25923 [2])	EC50 (Reo-1)	EC50 (RSV)	EC50 (VSV)	CC50 (in vitro)	IC50 [3]	MIC [4, 6]	MIC [4, 7]	MIC [4, 8]	MIC [4, 9]	MIC [4, 10]	MIC [4, 11]	MIC [4, 12]	MIC [4, 13]	MIC [4, 14]	MIC [4, 15]	effect against DNA topoisomerase IV (in words) [5]
S=C(NCCc1c[nH]c2ccccc12)Nc1ccc(Cl)c(Cl)c1 [Compound 6, 1-(2-(1H-indol-3-yl)ethyl)-3-(3,4-dichlorophenyl)thiourea]	6.25 µg/mL (≈ 17.2 µM)	6.25 µg/mL (≈ 17.2 µM)	12.5 µg/mL (≈ 34.3 µM)	15 mm	> 10 µM	> 13 µM	> 13 µM	10 µM	79.3 µM	6.25 µg/mL (≈ 17.2 µM)	6.25 µg/mL (≈ 17.2 µM)	6.25 µg/mL (≈ 17.2 µM)	6.25 µg/mL (≈ 17.2 µM)	6.25 µg/mL (≈ 17.2 µM)	6.25 µg/mL (≈ 17.2 µM)	6.25 µg/mL (≈ 17.2 µM)	6.25 µg/mL (≈ 17.2 µM)	6.25 µg/mL (≈ 17.2 µM)	6.25 µg/mL (≈ 17.2 µM)	
S=C(NCCc1c[nH]c2ccccc12)Nc1cccc(Cl)c1 [Compound 14, 1-(2-(1H-Indol-3-yl)ethyl)-3-(3-chlorophenyl)thiourea]	50 µg/mL (≈ 152 µM)	25 µg/mL (≈ 75.8 µM)	200 µg/mL (≈ 606 µM)	14 mm	> 6 µM	> 32 µM	> 32 µM	6 µM		25 µg/mL (≈ 75.8 µM)	25 µg/mL (≈ 75.8 µM)	25 µg/mL (≈ 75.8 µM)	25 µg/mL (≈ 75.8 µM)	25 µg/mL (≈ 75.8 µM)	25 µg/mL (≈ 75.8 µM)	25 µg/mL (≈ 75.8 µM)	25 µg/mL (≈ 75.8 µM)	25 µg/mL (≈ 75.8 µM)	25 µg/mL (≈ 75.8 µM)	not significantly effective
